According to PubChem BioAssay (NCI):
Values after ≈ are worked out from the molar mass of the structure shown.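 48-hour exposure; five concentrations; linearly interpolated endpoints. GI50: concentration for 50% inhibition of growth. The concentration for full growth arrest is given as TGI.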

What was measured:
Test in all cases: growth of human tumour cells (NCI), 48 h
NCI-H226 lung = system: NCI-H226 lung
HCC-2998 colon = system: HCC-2998 colon
SW-620 colon = system: SW-620 colon
SNB-75 CNS = system: SNB-75 CNS
UACC-257 melanoma = system: UACC-257 melanoma
SK-MEL-28 melanoma = system: SK-MEL-28 melanoma
OVCAR-4 ovarian = system: OVCAR-4 ovarian
HOP-92 NSCLC = system: HOP-92 NSCLC
MDA-MB-435 = system: MDA-MB-435
PC-3 prostate = system: PC-3 prostate
MDA-MB-231 breast = system: MDA-MB-231 breast

SMILES	TGI (NCI-H226 lung) [µM]	TGI (HCC-2998 colon) [µM]	TGI (SW-620 colon)	TGI (SNB-75 CNS)	TGI (UACC-257 melanoma)	TGI (SK-MEL-28 melanoma)	TGI (OVCAR-4 ovarian)	GI50 (HOP-92 NSCLC) [µM]	TGI (HOP-92 NSCLC) [µM]	TGI (MDA-MB-435)	TGI (PC-3 prostate)	TGI (MDA-MB-231 breast)	GI50 (MDA-MB-435)	GI50 (OVCAR-4 ovarian) [µg/mL]	GI50 (MDA-MB-231 breast) [µg/mL]	GI50 (SW-620 colon) [µg/mL]	GI50 (PC-3 prostate)	GI50 (SNB-75 CNS) [µg/mL]	GI50 (UACC-257 melanoma)	GI50 (SK-MEL-28 melanoma) [µg/mL]
Brc1ccc(C[P+]2(c3ccccc3)CCCCC2)cc1	> 100	> 100	> 100 µM	77.1 µM	73.8 µM	> 100 µM														
O=C(N/N=C/c1cc(Cl)cc(Cl)c1[O-])c1ccccc1O.O=C(N/N=C/c1cc(Cl)cc(Cl)c1[O-])c1ccccc1O.[Co+2]	4.1	6.63	16.8 µM	18.9 µM	14.6 µM	12.1 µM	7.07 µM	0.471	3.18											
O=C(O)Cc1ccc(Nc2nc3cc(C(F)(F)F)ccc3nc2C(=O)O)cc1	> 100		> 100 µM	> 100 µM	> 100 µM	> 100 µM	> 100 µM		> 100	> 100 µM	> 100 µM									
CS(=O)(=O)c1nc(-c2cc3c(c(S(C)(=O)=O)n2)CCCC3)cc2c1CCCCC2	> 100		> 100 µM	> 100 µM	> 100 µM	> 100 µM	> 100 µM			> 100 µM	> 100 µM	> 100 µM								
COC(=O)CCC1=C(CC(=O)OC)C(C)(OC)N=C1NC(=O)OCc1ccccc1 (centres undefined)	> 100	> 100	> 100 µM	> 100 µM	> 100 µM	> 100 µM	> 100 µM			> 100 µM	> 100 µM	> 100 µM								
O=C(O)C(O)C(O)C(=O)O (centres undefined)	> 100		> 100 µM	> 100 µM	> 100 µM	> 100 µM	> 100 µM		> 100	> 100 µM	> 100 µM	> 100 µM								
CC(=O)c1c(C)nc(SSc2nc(C)c(C(C)=O)c(-c3ccc(Cl)cc3)c2C#N)c(C#N)c1-c1ccc(Cl)cc1			> 150 µg/mL	80.3 µg/mL	> 150 µg/mL	> 150 µg/mL	> 150 µg/mL			> 150 µg/mL	> 150 µg/mL	103 µg/mL	> 150 µg/mL	62.6 (≈ 104 µM)	34.4 (≈ 56.9 µM)	69.4 (≈ 115 µM)	> 150 µg/mL	23.3 (≈ 38.7 µM)	> 150 µg/mL	103 (≈ 171 µM)
CCOC(=O)c1[nH]c(Br)c(-c2ccc(OC)c(OC)c2)c1Br	1.65		38.1 µM	32.8 µM	22.3 µM	20.3 µM				0.00973 µM	23.7 µM		0.00279 µM				0.0112 µM		10 µM	
[N-]=[N+]=NC1OC(=O)C(Cl)=C1N=P(c1ccccc1)(c1ccccc1)c1ccccc1 (centres undefined)	> 10	> 10	> 10 µM	> 10 µM	> 10 µM	> 10 µM	> 10 µM			> 10 µM	> 10 µM	> 10 µM								
CCOC(=O)C1=C(O)C2C3CC4C2C(O)=C(C(=O)OCC)C2C1C3C42 (centres undefined)	> 100		> 100 µM	> 100 µM	> 100 µM	> 100 µM	> 100 µM		> 100	> 100 µM	> 100 µM	> 100 µM								
